The source of these data is patent US20080125452A1, “Indolopyridines,Benzofuranopyridines and Benzothienopyridines” (ALTANA PHARMA AG, priority 2005, published 2008).

For data set [1], the system named is RKO colon adenocarcinoma cells (RKOp27 induced). As to the kind of experiment: Alamar Blue cell viability assay on RKOp27 cells arrested by Ponasterone A induced p27Kip1 expression (cell cycle specific mode of action). It is filed as cell-based. The following applies: Homo sapiens, cells arrested by ectopic p27Kip1 induced with 10 μM Ponasterone A, 72 hours incubation, read-out: IC50 RKO p27 induced. As for the experimental part:
To determine the cell cycle specific mode of action, subclones of RKO colon adenocarcinoma cells (RKOp27 as described by Schmidt et al. in Oncogene 19, 2423-2429; 2000) are seeded into 96 well flat bottom plates at a density of 16000 cells per well in a volume of 50 μl per well in DMEM growth medium with 10% FCS containing 10 μM Ponasterone A. 24 hours after seeding the 50 μl each of the compound dilutions in DMEM medium are added into each well of the 96-well plate. Each compound dilution is tested as quadruplicates. Wells containing untreated control cells are filled with 50 μl DMEM medium containing 1% DMSO. The cells are then incubated with the substances for 72 hours at 37° C. in a humidified atmosphere containing 5% carbon dioxide. To determine the viability of the cells, 10 μl of an Alamar Blue solution (Biosource) are added and the fluorescence is measured at an extinction of 544 nm and an emission of 590 nm. For the calculation of the cell viability the emission value from untreated cells is set as 100% viability and the emission rates of treated cells are set in relation to the values of untreated cells. Viabilities are expressed as % values. Viability is compared of proliferating cells grown in the absence of the inducer Ponasterone A, versus viability of cells arrested by the expression of ectopic p27Kip1 induced by Ponasterone A.
Representative IC50 values for anti-proliferation/cytotoxicity determined in the aforementioned assays follow from the following table A, in which the numbers of the compound correspond to the numbers of the examples.
On the technique in general: Resazurin is reduced to fluorescent resorufin, in cell work by metabolically active cells.

Molecule `COc1cc(OC)cc([C@@H]2c3sc4ccccc4c3C[C@H]3C(=O)N(C)C(=S)N23)c1` (racemic) [Compound 2, (3aSR,10RS)-10-(3,5-Dimethoxy-phenyl)-2-methyl-1-thioxo-1,2,4,10-tetrahydro-3aH-9-thia-2,10a-diaza-cyclopenta[b]fluoren-3-one] gave a melting point of 247 to 249 °C. In data set [1], the IC50 is more than 85 µM. For the molecule `COc1cc(OC)cc([C@@H]2c3[nH]c4cc(F)ccc4c3C[C@H]3C(=O)N(C)C(=S)N23)c1` (racemic) [Compound 6, (3aSR,10RS)-10-(3,5-Dimethoxy-phenyl)-7-fluoro-2-methyl-1-thioxo-1,2,3a,4,9,10-hexahydro-2,9,10a-triaza-cyclopenta[b]fluoren-3-one], the melting point fell in the range of 199 to 202 °C. For the same molecule, the half-maximal inhibitory concentration (IC50) in data set [1] was more than 100 µM. For `COc1cc(OC)cc([C@@H]2c3[nH]c4cccc(C)c4c3C[C@H]3C(=O)N(C)C(=S)N23)c1` (racemic) [Compound 7, (3aSR,10RS)-10-(3,5-Dimethoxy-phenyl)-2,5-dimethyl-1-thioxo-1,2,3a,4,9,10-hexahydro-2,9,10a-triaza-cyclopenta[b]fluoren-3-one] the same measures were 279 to 291 °C and more than 100 µM. In the case of `COc1cc(OC)cc([C@@H]2c3[nH]c4cc(C)ccc4c3C[C@H]3C(=O)N(C)C(=S)N23)c1` (racemic) [Compound 8, (3aSR,10RS)-10-(3,5-Dimethoxy-phenyl)-2,7-dimethyl-1-thioxo-1,2,3a,4,9,10-hexahydro-2,9,10a-triaza-cyclopenta[b]fluoren-3-one], the melting point is 216 to 218 °C. In data set [1], the IC50 is more than 100 µM. On to `COc1cc(OC)cc([C@@H]2c3[nH]c4ccccc4c3C[C@H]3C(=O)N(C)C(=S)N23)c1` [Compound 1, (3aS,10R)-10-(3,5-Dimethoxy-phenyl)-2-methyl-1-thioxo-1,2,3a,4,9,10-hexahydro-2,9,10a-triaza-cyclopenta[b]fluoren-3-one], for which the 50% inhibitory concentration (IC50) in data set [1] is more than 100 µM. Molecule `CN1C(=O)[C@@H]2Cc3c([nH]c4ccccc34)[C@@H](c3cc(Cl)cc(Cl)c3)N2C1=S` [Compound 3, (3aS,10R)-10-(3,5-Dichloro-phenyl)-2-methyl-1-thioxo-1,2,3a,4,9,10-hexahydro-2,9,10a-triaza-cyclopenta[b]fluoren-3-one] displayed a melting point of 277 °C. For the same molecule, in data set [1], the half-maximal inhibitory concentration (IC50) was more than 100 µM. As for `CN1C(=O)[C@@H]2Cc3c([nH]c4ccccc34)[C@@H](c3cc(F)cc(F)c3)N2C1=S` [Compound 4, (3aS,10R)-10-(3,5-Difluoro-phenyl)-2-methyl-1-thioxo-1,2,3a,4,9,10-hexahydro-2,9,10a-triaza-cyclopenta[b]fluoren-3-one], the melting point lay in the range of 308 to 310 °C. Besides, the concentration for half-maximal inhibition (IC50) in data set [1] is more than 100 µM. `Cc1cc(C)cc([C@@H]2c3[nH]c4ccccc4c3C[C@H]3C(=O)N(C)C(=S)N23)c1` [Compound 5, (3aS,10R)-10-(3,5-Dimethyl-phenyl)-2-methyl-1-thioxo-1,2,3a,4,9,10-hexahydro-2,9,10a-triaza-cyclopenta[b]fluoren-3-one] displayed a melting point of 252 to 257 °C. Further, the IC50 in data set [1] was more than 100 µM.

Usually melting point stands for the temperature of the solid-liquid transition. One may read the IC50 as the point on the concentration scale where inhibition reaches its midpoint.
